Experimental findings from patent US10251902B2, “Pharmaceutical composition for treating or preventing neuropsychiatric disease, containing flavone-6-C-glucose derivatives as active ingredients” (priority 2013, dated 2019) are described below.

Common to all, as to format: in vivo, ICR mice
One experiment concerns mouse model of stroke. The experiment can be described thus: Y-maze test in mouse model of stroke. The following applies: for Alternation Behavior (%): Table 11, test on 7th day; for Total Entry: Table 12. As for the experimental part: Seven-week old ICR mice in about 30 g to 35 g (Orientbio Inc, Republic of Korea) were received water and feed without constraint and adapted for 5 days under an environment having about 23±1° C. of temperature, about 60±10% of humidity and 12-hour light/dark cycle (animal laboratory at College of Pharmacy, Kyung-Hee University), and then used for the experiment.
The laboratory animal in 1) was located in an operating room, adapted for 60 minutes, and anesthetized in a space providing anaesthetic gasses (nitrous oxide: 70%; oxygen: 30%; isoflurane: 2.0%). Pain reflex was examined to confirm the anesthesia. The laboratory animal was lain down straight on an operating table, and fixed its upper limb and head. Skin from the spot, where the upper limb and the center line meet, was incised as 1.5 cm to expose the both common carotid arteries by using tweezers while not damaging the tissues. Tissues and nerves attached to the exposed carotid arteries were separated and fixed with an aneurysm clip. The clip was removed after 15 minutes and reperfused, and the incised area was sutured with sutures. After the suture, the laboratory animal was immediately moved to a recovery room (32-33° C., O2 enrichment condition) and kept until it recovers from anesthesia. Observation on its weight and status was conducted once a day for 4 days after the operation.
Administration of the Swertia japonica extract prepared in Example 1 was initiated to the mice prepared in the 1) immediately after the operation 3), and kept administering at the same time for 7 days. Five groups (5 mice per each group) were prepared as drug administration groups 1, 2 and 3, wherein the Swertia japonica extract prepared in Example 1 was administered thereto; and controls 1 and 2. 50 mg/kg, 100 mg/kg and 200 mg/kg of the Swertia japonica extract was administered to the drug administration groups 1, 2 and 3 respectively; and 0.15 mL of Tween 80 was administered to the controls 1 and 2 respectively. At the 7th day from the initial administration, the Y-maze test was conducted for the drug administration groups 1 to 3 and the controls 1 to 2 in the same manner as Experimental Example 1-5.
After 60 minutes, mice of the drug administration groups 1-3 and the controls 1-2 were carefully located on each branches of the Y-maze, which was divided as A, B and C respectively, and let the mice move freely for 8 minutes, and then recorded branches that mice have entered. The entrance was recorded when the entire body (i.e. including the tail) has completely entered. It was also recorded when the mice entered again into the branch that the mice have entered before. The result was converted into % via Equation 1.
Administration of swertisin prepared in Example 3 was initiated to the mice prepared in 1) immediately after the operation 3), and kept administering at the same time for 7 days. Five groups (5 mice per each group) were prepared as drug administration groups 1, 2 and 3, wherein swertisin prepared in Example 3 was administered thereto; and controls 1 and 2. 50 mg/kg, 100 mg/kg and 200 mg/kg of swertisin was administered to the drug administration groups 1, 2 and 3 respectively; and 0.15 mL of Tween 80 was administered to the controls 1 and 2 respectively. At the 7th day from the initial administration, the Y-maze test was conducted for the drug administration groups 1 to 3 and the controls 1 to 2 in the same manner as Experimental Example 1.

Experiment [1] concerns anxiety symptoms in a normal status. The experiment can be described thus: Marble burying test. The following applies: swertisin 10 mg/kg. How it is done:
Six-week old ICR mice in about 26 g to 28 g (Orientbio Inc, Republic of Korea) were received water and feed without constraint and adapted for 5 days under an environment having about 23±1° C. of temperature, about 60±10% of humidity and 12-hour light/dark cycle (animal laboratory at College of Pharmacy, Kyung-Hee University), and then used for the experiment.
As a method of measuring alleviation of anxiety symptoms in a normal status, the marble burying test was conducted based on the nature of mice that they dig when feel anxiety. Inside of a cage in size of 40 cm s 27 cm s 18 cm was covered with straw to the height of 4 cm, and 25 marbles having same pattern were arranged at intervals of 3 cm. Two groups (10 mice per each group) were prepared as the drug administration group 1, wherein swertisin, which is one of the flavone-6-C-β-D-glucose derivatives prepared in Example 3, was administered, and the control 1. […]
After 60 minutes of administration, mice of the drug administration group 1 and the control 1 were carefully located in the cage having the marbles and the mice were allowed to move freely for 30 minutes. After 30 minutes, the number of buried marbles under straw was counted. […] The more the number of buried marbles, it was assessed that the laboratory animal feels anxiety severer (Broekkamp, C L. et al., Eur J Pharmacol., 126, pp 223-229, 1986).

In experiment [2] the test system is pentobarbital-induced sleep. The experiment can be described thus: Sleep-inducing test (pentobarbital). The following applies: swertisin 10 mg/kg. How it is done:
Six-week old ICR mice in about 26 g to 28 g (Orientbio Inc, Republic of Korea) were received water and feed without constraint and adapted for 5 days under an environment having about 23±1° C. of temperature, about 60±10% of humidity and 12-hour light/dark cycle (animal laboratory at College of Pharmacy, Kyung-Hee University), and then used for the experiment. Foods were blocked at 24 hours before the test.
The mice prepared in 1) were divided into […] (10 mice per each group) including the drug administration group 1, wherein swertisin was administered, and the controls 1 and 2. Swertisin prepared in Example 3 was dissolved in 10% Tween 80 (Polyoxyethylene sorbitan monooleate: Sigma, U.S.A.) and administered to the drug administration group 1 in an amount of 10 mg/kg. Meanwhile, 0.15 mL of 10% Tween 80 was administered to the control 1.
After 1 hour of administration, pentobarbital was dissolved in a saline solution and intraperitoneally administered to the mouse in an amount of 60 mg/kg. The mouse was located in the cage. At this time, straw was laid in the cage only enough to cover the floor, and only one mouse was located in the cage for observation. […]

[3] abbreviates: swertisin 50 mg/kg for 7 days after stroke operation.
Setting [4] is: swertisin 100 mg/kg for 7 days after stroke operation.
Setting [5] is: swertisin 200 mg/kg for 7 days after stroke operation.

With `COc1cc2oc(-c3ccc(O)cc3)cc(=O)c2c(O)c1[C@@H]1O[C@H](CO)[C@@H](O)[C@H](O)[C@H]1O` [swertisin], the results for the “Alternation Behavior (%)” value in the experiment on mouse model of stroke (setting [3]), in the experiment with mouse model of stroke (setting [4]) and in the experiment on mouse model of stroke (setting [5]) were 56.10 ± 7.431%, 57.58 ± 12.86% and 70.46 ± 15.74%, respectively. In addition, the “Total Entry” value is given as 24.14 ± 2.478 in the experiment on mouse model of stroke (setting [3]), 28.50 ± 6.364 in the experiment with mouse model of stroke (setting [4]) and 22.00 ± 5.958 in the experiment on mouse model of stroke (setting [5]). Besides, the “number of the buried marbles compared to that of the control 1, in words” value in experiment [1] is “decreased”. Besides, in experiment [1] (60 minutes after administration, 30 minutes in cage, 25 marbles), the “Number of Buried Marbles” value worked out at 21.78 ± 1.856. Besides, in experiment [2] (pentobarbital 60 mg/kg i.p.), the “total sleep time compared to the control 1, in words” value is given as “remarkably decreased”. In experiment [2] (pentobarbital 60 mg/kg i.p. 1 hour after administration), the “Total Sleep Time” value was 94.47 ± 21.83 min.
